# Key:
# BTK enzyme = biological target: T1, BTK enzyme (Homo sapiens, UniProt Q06187); assay: In vitro BTK kinase assay: BTK-POLYGAT-LS assay; format: biochemical; settings: ATP 10 μM, read-out: IC50 (10uMATP)
# T1 construct: purchased Upstate 14-552
# How it was run: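 Human BTK activity was measured with final 10 μM ATP and 100 nM polyGAT substrate in pH 7.5 Tris buffer with 10 mM MgCl2, DTT, Triton X-100 and casein.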
# [1] = biological target: BTK (phospho-BTK) in human whole blood (Homo sapiens, UniProt Q06187); assay: In vitro PD assay in human whole blood (pBTK assay)
# Sequence of BTK (phospho-BTK) in human whole blood (Q06187 whole entry): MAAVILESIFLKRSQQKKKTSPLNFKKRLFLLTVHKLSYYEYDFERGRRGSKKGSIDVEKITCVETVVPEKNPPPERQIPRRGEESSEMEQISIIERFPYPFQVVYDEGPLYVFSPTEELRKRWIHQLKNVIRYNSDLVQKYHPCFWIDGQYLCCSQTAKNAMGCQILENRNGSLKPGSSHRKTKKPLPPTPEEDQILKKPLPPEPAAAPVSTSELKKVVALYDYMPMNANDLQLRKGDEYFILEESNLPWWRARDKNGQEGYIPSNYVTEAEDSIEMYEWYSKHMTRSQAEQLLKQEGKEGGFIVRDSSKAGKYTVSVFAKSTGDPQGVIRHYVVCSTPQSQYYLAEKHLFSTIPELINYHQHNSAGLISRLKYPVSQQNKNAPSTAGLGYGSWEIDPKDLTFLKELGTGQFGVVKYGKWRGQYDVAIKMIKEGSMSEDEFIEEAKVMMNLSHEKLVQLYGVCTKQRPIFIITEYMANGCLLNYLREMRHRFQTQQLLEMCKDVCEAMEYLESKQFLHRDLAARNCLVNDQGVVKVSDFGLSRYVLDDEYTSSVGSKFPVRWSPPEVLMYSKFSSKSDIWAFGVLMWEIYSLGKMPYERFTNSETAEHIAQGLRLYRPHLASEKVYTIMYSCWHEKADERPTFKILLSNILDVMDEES
# T1 sequence (Q06187 whole entry): as above
IC50 (BTK enzyme) [nM],IC50 [1] [nM],SMILES
< 10,500 to 1500,"Cc1cc(-c2ccnc(Nc3cnn(C)c3)n2)ccc1CNC(=O)c1cc2c(s1)CCNC2 [Example I-2, N-(2-methyl-4-(2-((1-methyl-1H-pyrazol-4-yl)amino)pyrimidin-4-yl)benzyl)-4,5,6,7-tetrahydrothieno[3,2-c]pyridine-2-carboxamide]"
< 10,1500 to 10000,"Cc1cc(-c2ccnc(Nc3cnn(C)c3)n2)ccc1CNC(=O)c1cc2c(s1)CCOC2 [Example I-3, N-(2-methyl-4-(2-((1-methyl-1H-pyrazol-4-yl)amino)pyrimidin-4-yl)benzyl)-6,7-dihydro-4H-thieno[3,2-c]pyran-2-carboxamide]"
< 10,1500 to 10000,"Cc1cc(-c2ccnc(Nc3cnn(C)c3)n2)ccc1CNC(=O)c1cnc(C(F)(F)F)s1 [Example I-4, N-(2-methyl-4-(2-((1-methyl-1H-pyrazol-4-yl)amino)pyrimidin-4-yl)benzyl)-2-(trifluoromethyl)thiazole-5-carboxamide]"
< 10,500 to 1500,"Cc1cc(-c2ccnc(Nc3cnn(C)c3)n2)ccc1CNC(=O)c1cc2c(s1)CCCC2 [Example I-5, N-(2-methyl-4-(2-((1-methyl-1H-pyrazol-4-yl)amino)pyrimidin-4-yl)benzyl)-4,5,6,7-tetrahydrobenzo[b]thiophene-2-carboxamide]"
< 10,500 to 1500,"Cc1cc(-c2ccnc(Nc3cnn(C)c3)n2)ccc1CNC(=O)c1ccc(C(C)(C)C)cn1 [Example I-6, 5-(tert-butyl)-N-(2-methyl-4-(2-((1-methyl-1H-pyrazol-4-yl)amino)pyrimidin-4-yl)benzyl)picolinamide]"
< 10,500 to 1500,"Cc1cc(-c2ccnc(Nc3cnn(C)c3)n2)ccc1CNC(=O)c1ccc(C(C)(C)C)cc1 [Example I-7, 4-(tert-butyl)-N-(2-methyl-4-(2-((1-methyl-1H-pyrazol-4-yl)amino)pyrimidin-4-yl)benzyl)benzamide]"
< 10,500 to 1500,"Cc1cc(-c2ccnc(Nc3cnn(C)c3)n2)ccc1CNC(=O)c1nc2c(s1)CCCC2 [Example I-9, N-(2-methyl-4-(2-((1-methyl-1H-pyrazol-4-yl)amino)pyrimidin-4-yl)benzyl)-4,5,6,7-tetrahydrobenzo[d]thiazole-2-carboxamide]"
< 10,< 500,"Cc1cc(-c2ccnc(Nc3cnn(C)c3)n2)ccc1CNC(=O)c1nc2c(s1)CCC2 [Example I-10, N-(2-methyl-4-(2-((1-methyl-1H-pyrazol-4-yl)amino)pyrimidin-4-yl)benzyl)-5,6-dihydro-4H-cyclopenta[d]thiazole-2-carboxamide]"
< 10,< 500,"Cc1cc(-c2ccnc(Nc3cnn(C)c3)n2)ccc1CN1Cc2nc(C(C)(C)C)sc2C1=O [Example I-12, 2-(tert-butyl)-5-(2-methyl-4-(2-((1-methyl-1H-pyrazol-4-yl)amino)pyrimidin-4-yl)benzyl)-4H-pyrrolo[3,4-d]thiazol-6(5H)-one]"
< 10,1500 to 10000,"Cc1cc(-c2ccnc(Nc3cnn(C)c3)n2)ccc1CN1Cc2cc(C3CC3)sc2C1=O [Example I-13, 2-cyclopropyl-5-(2-methyl-4-(2-((1-methyl-1H-pyrazol-4-yl)amino)pyrimidin-4-yl)benzyl)-4H-thieno[2,3-c]pyrrol-6(5H)-one]"
< 10,< 500,"Cc1cc(-c2ccnc(Nc3cnn(C)c3)n2)ccc1CNC(=O)c1cc2c(s1)CCCO2 [Example I-15, N-(2-methyl-4-(2-((1-methyl-1H-pyrazol-4-yl)amino)pyrimidin-4-yl)benzyl)-6,7-dihydro-5H-thieno[3,2-b]pyran-2-carboxamide]"
< 10,500 to 1500,"Cc1cc(-c2ccnc(Nc3cnn(C)c3)n2)ccc1CNC(=O)N1CCC(C(F)(F)F)CC1 [Example I-19, N-(2-methyl-4-(2-((1-methyl-1H-pyrazol-4-yl)amino)pyrimidin-4-yl)benzyl)-4-(trifluoromethyl)piperidine-1-carboxamide]"
< 10,500 to 1500,"Cc1cc(-c2ccnc(Nc3cnn(C)c3)n2)ccc1CNC(=O)N1CCC(C(C)(C)C)CC1 [Example I-20, 4-(tert-butyl)-N-(2-methyl-4-(2-((1-methyl-1H-pyrazol-4-yl)amino)pyrimidin-4-yl)benzyl)piperidine-1-carboxamide]"
100 to 999,1500 to 10000,"Cc1cc(-c2ccnc(Nc3cnn(C)c3)n2)ccc1CNC(=O)N1CCN(C(C)(C)C)CC1 [Example I-23, 4-(tert-butyl)-N-(2-methyl-4-(2-((1-methyl-1H-pyrazol-4-yl)amino)pyrimidin-4-yl)benzyl)piperazine-1-carboxamide]"
10 to 99,1500 to 10000,"Cc1cc(-c2ccnc(Nc3cnn(C)c3)n2)ccc1CNC(=O)N1CCOC(C(C)C)C1 (centres unmarked) [Example I-24, 2-isopropyl-N-(2-methyl-4-(2-((1-methyl-1H-pyrazol-4-yl)amino)pyrimidin-4-yl)benzyl)morpholine-4-carboxamide]"
< 10,< 500,"Cc1cc(-c2ccnc(Nc3cn[nH]c3)n2)ccc1CNC(=O)c1cnc(C(C)(C)C)s1 [Example I-36, N-(4-(2-((1H-pyrazol-4-yl)amino)pyrimidin-4-yl)-2-methylbenzyl)-2-(tert-butyl)thiazole-5-carboxamide]"
< 10,< 500,"Cc1cc(-c2ccnc(Nc3cnn(CCO)c3)n2)ccc1CNC(=O)c1cnc(C(C)(C)C)s1 [Example I-37, 2-(tert-butyl)-N-(4-(2-((1-(2-hydroxyethyl)-1H-pyrazol-4-yl)amino)pyrimidin-4-yl)-2-methylbenzyl)thiazole-5-carboxamide]"
< 10,500 to 1500,"Cc1cc(-c2ccnc(Nc3cnn(C4CCOCC4)c3)n2)ccc1CNC(=O)c1cnc(C(C)(C)C)s1 [Example I-38, 2-(tert-butyl)-N-(2-methyl-4-(2-((1-(tetrahydro-2H-pyran-4-yl)-1H-pyrazol-4-yl)amino)pyrimidin-4-yl)benzyl)thiazole-5-carboxamide]"
< 10,< 500,"COCCn1cc(Nc2nccc(-c3ccc(CNC(=O)c4cnc(C(C)(C)C)s4)c(C)c3)n2)cn1 [Example I-39, 2-(tert-butyl)-N-(4-(2-((1-(2-methoxyethyl)-1H-pyrazol-4-yl)amino)pyrimidin-4-yl)-2-methylbenzyl)thiazole-5-carboxamide]"
< 10,< 500,"CCn1cc(Nc2nccc(-c3ccc(CNC(=O)c4cnc(C(C)(C)C)s4)c(C)c3)n2)cn1 [Example I-40, 2-(tert-butyl)-N-(4-(2-((1-ethyl-1H-pyrazol-4-yl)amino)pyrimidin-4-yl)-2-methylbenzyl)thiazole-5-carboxamide]"
< 10,< 500,"Cc1cc(-c2ccnc(Nc3cnn(C(C)C)c3)n2)ccc1CNC(=O)c1cnc(C(C)(C)C)s1 [Example I-41, 2-(tert-butyl)-N-(4-(2-((1-isopropyl-1H-pyrazol-4-yl)amino)pyrimidin-4-yl)-2-methylbenzyl)thiazole-5-carboxamide]"
< 10,< 500,"Cc1cc(-c2ccnc(Nc3cnn(C4CNC4)c3)n2)ccc1CNC(=O)c1cnc(C(C)(C)C)s1 [Example I-42, N-(4-(2-((1-(azetidin-3-yl)-1H-pyrazol-4-yl)amino)pyrimidin-4-yl)-2-methylbenzyl)-2-(tert-butyl)thiazole-5-carboxamide]"
< 10,< 500,"Cc1cc(-c2ccnc(Nc3cnn(C4CN(C)C4)c3)n2)ccc1CNC(=O)c1cnc(C(C)(C)C)s1 [Example I-43, 2-(tert-butyl)-N-(2-methyl-4-(2-((1-(1-methylazetidin-3-yl)-1H-pyrazol-4-yl)amino)pyrimidin-4-yl)benzyl)thiazole-5-carboxamide]"
< 10,< 500,"Cc1cc(-c2ccnc(Nc3cnn(C4CC(C(=O)O)C4)c3)n2)ccc1CNC(=O)c1cnc(C(C)(C)C)s1 (centres unmarked) [Example I-44, 3-(4-((4-(4-((2-(tert-butyl)thiazole-5-carboxamido)methyl)-3-methylphenyl)pyrimidin-2-yl)amino)-1H-pyrazol-1-yl)cyclobutanecarboxylic acid]"
< 10,< 500,"Cc1cc(-c2ccnc(Nc3cnn(C4CCNCC4)c3)n2)ccc1CNC(=O)c1cnc(C(C)(C)C)s1 [Example I-45, 2-(tert-butyl)-N-(2-methyl-4-(2-((1-(piperidin-4-yl)-1H-pyrazol-4-yl)amino)pyrimidin-4-yl)benzyl)thiazole-5-carboxamide]"
< 10,< 500,"Cc1cc(-c2ccnc(Nc3cnn(C4CCN(C)CC4)c3)n2)ccc1CNC(=O)c1cnc(C(C)(C)C)s1 [Example I-46, 2-(tert-butyl)-N-(2-methyl-4-(2-((1-(1-methylpiperidin-4-yl)-1H-pyrazol-4-yl)amino)pyrimidin-4-yl)benzyl)thiazole-5-carboxamide]"
< 10,500 to 1500,"Cc1cc(-c2ccnc(Nc3cnn(C4CCN(S(C)(=O)=O)CC4)c3)n2)ccc1CNC(=O)c1cnc(C(C)(C)C)s1 [Example I-47, 2-(tert-butyl)-N-(2-methyl-4-(2-((1-(1-(methylsulfonyl)piperidin-4-yl)-1H-pyrazol-4-yl)amino)pyrimidin-4-yl)benzyl)thiazole-5-carboxamide]"
< 10,< 500,"Cc1cc(-c2ccnc(Nc3cnn([C@H]4CC[C@@H](C(=O)O)CC4)c3)n2)ccc1CNC(=O)c1cnc(C(C)(C)C)s1 [Example I-48, cis-4-(4-((4-(4-((2-(tert-butyl)thiazole-5-carboxamido)methyl)-3-methylphenyl)pyrimidin-2-yl)amino)-1H-pyrazol-1-yl)cyclohexanecarboxylic acid]"

# — US10759783B2, “Biaryl inhibitors of Bruton'S tyrosine kinase” (BIOGEN MA INC., priority 2013, dated 2020)
